Target: T1, Peroxisome proliferator-activated receptor gamma (Homo sapiens, UniProt P37231)
T1 sequence (P37231 whole entry): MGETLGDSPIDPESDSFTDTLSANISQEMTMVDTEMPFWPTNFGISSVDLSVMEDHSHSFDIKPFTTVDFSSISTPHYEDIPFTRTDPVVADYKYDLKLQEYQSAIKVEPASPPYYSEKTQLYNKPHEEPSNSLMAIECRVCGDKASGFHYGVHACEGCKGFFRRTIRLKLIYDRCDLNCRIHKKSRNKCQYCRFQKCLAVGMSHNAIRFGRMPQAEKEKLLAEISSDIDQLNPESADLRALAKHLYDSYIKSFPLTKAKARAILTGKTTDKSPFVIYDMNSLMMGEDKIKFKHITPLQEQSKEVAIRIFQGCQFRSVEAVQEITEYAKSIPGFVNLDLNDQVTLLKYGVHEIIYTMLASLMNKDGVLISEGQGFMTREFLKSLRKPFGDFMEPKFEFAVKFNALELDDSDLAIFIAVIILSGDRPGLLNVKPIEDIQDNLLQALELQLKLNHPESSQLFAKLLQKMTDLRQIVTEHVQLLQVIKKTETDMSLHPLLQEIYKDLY
Assay: Antagonist activity at PPARgamma (unknown origin) expressed in human LNCaP cells assessed as suppression of pioglitazone-induced PPAR response element driven firefly luciferase activity measured after 24 hrs by dual luciferase reporter assay
Assay type: cell-based

SMILES | IC50 [µM]
O=C(O)c1ccccc1-c1ccccc1C(=O)Nc1ccc2c(c1)-c1ccccc1C2 | 3.5
CC(/C=N/Nc1ccc(S(=O)(=O)/N=C/C(C)=C/c2ccccc2)cc1)=C\c1ccccc1 | 2.3
O=C(Nc1ccccc1C(=O)N/N=C/c1c(O)ccc2ccccc12)c1ccccc1Cl | 1.7
O=C(CCCOc1ccc(Cl)cc1Cl)N[C@@H](Cc1c[nH]c2ccccc12)C(=O)O | 2.4
COc1cc(OC)c2c(=O)cc(-c3cccnc3)oc2c1 | 1.1
O=C1C=C(Nc2ccccc2C(=O)CC(=O)C(=O)Nc2ccc(Cl)c(Cl)c2)c2ccccc2C1=O | 2.8
COc1ccc(O)c(/C=N/c2ccccc2NS(=O)(=O)c2ccc(C)cc2)c1 | 2.3
O=S(=O)(NCCSSCCNS(=O)(=O)c1cccc2cccnc12)c1cccc2cccnc12 | 1.5
O=C(CCCC(=O)N/N=C/c1cccc2ccccc12)N/N=C/c1ccc2ccccc2c1 | 2.1
CC(=O)c1cc(C(C)=O)c(CC(=O)C(=O)Nc2cccc(C)c2C)cc1CC(=O)C(=O)Nc1cccc(C)c1C | 2.6
COc1ccc(NC(=O)CC[C@H](NS(=O)(=O)c2ccc(C)cc2)C(=O)O)cc1 | 275
O=C(OCc1cccc2ccc3cccc(COC(=O)c4ccccc4)c3c12)c1ccccc1 | 5.4
CCN(CC)c1ccc(CN(CC(=O)c2ccc(Cl)c(Cl)c2)Cc2ccccc2)cc1 | 4.5
O=C(CNC(=O)Nc1ccc(NC(=O)NCC(=O)Nc2ccc(C3=NCCN3)cc2)cc1)Nc1ccc(C2=NCCN2)cc1 | 1.6
COc1c(OC)c(O)c2c(=O)cc(-c3ccc(O)cc3)oc2c1OC [XANTHOMICROL] | 5.4

From ChEMBL document CHEMBL4823312, “Virtual screening and biological evaluation of PPARγ antagonists as potential anti-prostate cancer agents” (Bioorg Med Chem, 2021)
